Data: the supplement of paper PMC11451515

Key:
Details in all cases: 48 h
SEM cells [1] = assay: cell viability relative to DMSO control; higher = less cytotoxic
Method in brief: (§1)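 Viability, reported as a per-plate percentage of DMSO wells with cell-free wells as background, came from CellTiter-Glo One luminescence. Reading took place after 48 h at 37°C. Before that, NOMO1 or SEM (500 cells/well) or P12-Ichikawa (1000 cells/well) leukemia cells, adapted for at least four passages in each medium, were seeded in 1536-well plates (5 μl) and pin-dosed with library compounds in DMSO, 47 μM to 0.79 nM over 11 threefold points.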

P12-Ichikawa [2] = assay: as above
Method in brief: as §1

SEM cells [3] = assay: AUC of viability dose-response curve (% viability x log10 dose units); higher = less sensitive
Method in brief: (§2)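 Over 48 h at 37°C, leukemia cells in 1536-well plates (500 or 1000 cells/well), adapted to each medium, received library compounds in DMSO at 11 threefold doses from 47 μM to 0.79 nM. CellTiter-Glo One luminescence, normalised per plate to DMSO and cell-free wells, was fitted by a four-parameter log-logistic function of log10 dose. The area under the curve was then integrated by trapezoidal rule, after scaling curves above full viability and removing those that failed quality control.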

P12-Ichikawa [4] = assay: as above
Method in brief: as §2

NOMO1 [5] = assay: as above
Method in brief: as §2

NOMO1 [6] = assay: cell viability relative to DMSO control; higher = less cytotoxic
Method in brief: as §1

CCC1(c2ccccc2)C(=O)NCNC1=O
cell viability [%]
Details	HPLM + 10% dialyzed FBS	RPMI 5 mM glucose + 10% FBS	RPMI 5 mM glucose + 10% dialyzed FBS
P12-Ichikawa [2], 0.000781 µM	103	104	94.5
P12-Ichikawa [2], 0.00234 µM	114	111	109
P12-Ichikawa [2], 0.00702 µM	118	122	118
P12-Ichikawa [2], 0.0211 µM	120	128	115
P12-Ichikawa [2], 0.0632 µM	120	134	120
P12-Ichikawa [2], 0.19 µM	118	127	116
P12-Ichikawa [2], 0.569 µM	121	129	117
P12-Ichikawa [2], 1.71 µM	119	126	118
P12-Ichikawa [2], 5.12 µM	116	142	126
P12-Ichikawa [2], 15.4 µM	118	143	121
P12-Ichikawa [2], 46.1 µM	119	131	117
SEM cells [1], 0.000781 µM	94.6	100	91.6
SEM cells [1], 0.00234 µM	104	112	115
SEM cells [1], 0.00702 µM	105	108	123
SEM cells [1], 0.0211 µM	78.7	76.1	84.4
SEM cells [1], 0.0632 µM	102	106	108
SEM cells [1], 0.19 µM	110	109	120
SEM cells [1], 0.569 µM	114	108	117
SEM cells [1], 1.71 µM	117	103	115
SEM cells [1], 5.12 µM	116	116	114
SEM cells [1], 15.4 µM	106	113	117
SEM cells [1], 46.1 µM	122	117	109

AUC of viability dose-response curve
Details	NOMO1 [5]	P12-Ichikawa [4]	SEM cells [3]
HPLM + 10% dialyzed FBS	442	471	441
RPMI 5 mM glucose + 10% FBS	448	453	445
RPMI 5 mM glucose + 10% dialyzed FBS	471	466	452

Cc1c(C)n(Cc2ccc(-c3ccccc3C(=O)O)cc2)c2ccc(C(=O)N[C@@H](C)c3ccc([N+](=O)[O-])cc3)cc12
cell viability [%]
Details	NOMO1 [6]	P12-Ichikawa [2]	SEM cells [1]
HPLM + 10% dialyzed FBS, 0.000781 µM	92.6	103	106
HPLM + 10% dialyzed FBS, 0.00234 µM	107	105	101
HPLM + 10% dialyzed FBS, 0.00702 µM	106	102	117
HPLM + 10% dialyzed FBS, 0.0211 µM	103	107	105
HPLM + 10% dialyzed FBS, 0.0632 µM	115	103	107
HPLM + 10% dialyzed FBS, 0.19 µM	116	109	105
HPLM + 10% dialyzed FBS, 0.569 µM	102	109	116
HPLM + 10% dialyzed FBS, 1.71 µM	86.8	120	110
HPLM + 10% dialyzed FBS, 5.12 µM	86	114	108
HPLM + 10% dialyzed FBS, 15.4 µM	32.2	25.8	109
HPLM + 10% dialyzed FBS, 46.1 µM	35.1	33.6	119
RPMI 5 mM glucose + 10% FBS, 0.000781 µM	118	101	109
RPMI 5 mM glucose + 10% FBS, 0.00234 µM	107	104	109
RPMI 5 mM glucose + 10% FBS, 0.00702 µM	111	102	115
RPMI 5 mM glucose + 10% FBS, 0.0211 µM	126	96.8	112
RPMI 5 mM glucose + 10% FBS, 0.0632 µM	105	112	118
RPMI 5 mM glucose + 10% FBS, 0.19 µM	112	110	119
RPMI 5 mM glucose + 10% FBS, 0.569 µM	124	114	118
RPMI 5 mM glucose + 10% FBS, 1.71 µM	101	102	124
RPMI 5 mM glucose + 10% FBS, 5.12 µM	101	113	120
RPMI 5 mM glucose + 10% FBS, 15.4 µM	18.7	25.2	121
RPMI 5 mM glucose + 10% FBS, 46.1 µM	12.3	25.1	110
RPMI 5 mM glucose + 10% dialyzed FBS, 0.000781 µM	108	99.6	99.2
RPMI 5 mM glucose + 10% dialyzed FBS, 0.00234 µM	121	97.5	117
RPMI 5 mM glucose + 10% dialyzed FBS, 0.00702 µM	104	106	115
RPMI 5 mM glucose + 10% dialyzed FBS, 0.0211 µM	109	105	112
RPMI 5 mM glucose + 10% dialyzed FBS, 0.0632 µM	114	106	116
RPMI 5 mM glucose + 10% dialyzed FBS, 0.19 µM	107	101	127
RPMI 5 mM glucose + 10% dialyzed FBS, 0.569 µM	125	113	120
RPMI 5 mM glucose + 10% dialyzed FBS, 1.71 µM	106	108	117
RPMI 5 mM glucose + 10% dialyzed FBS, 5.12 µM	111	114	115
RPMI 5 mM glucose + 10% dialyzed FBS, 15.4 µM	19.2	25.5	115
RPMI 5 mM glucose + 10% dialyzed FBS, 46.1 µM	16.2	20	106

AUC of viability dose-response curve
Details	NOMO1 [5]	P12-Ichikawa [4]	SEM cells [3]
HPLM + 10% dialyzed FBS	421	425	460
RPMI 5 mM glucose + 10% FBS	411	423	466
RPMI 5 mM glucose + 10% dialyzed FBS	417	422	470

CCOC(=O)[C@@H](N)Cc1ccc(-c2cc(O[C@H](c3ccc(Cl)cc3-n3ccc(C)n3)C(F)(F)F)nc(N)n2)cc1.O=C(O)CNC(=O)c1ccccc1
cell viability [%]
Details	NOMO1 [6]	P12-Ichikawa [2]	SEM cells [1]
HPLM + 10% dialyzed FBS, 0.000781 µM	114	107	100
HPLM + 10% dialyzed FBS, 0.00234 µM	111	110	129
HPLM + 10% dialyzed FBS, 0.00702 µM	121	103	93.3
HPLM + 10% dialyzed FBS, 0.0211 µM	125	112	133
HPLM + 10% dialyzed FBS, 0.0632 µM	114	106	127
HPLM + 10% dialyzed FBS, 0.19 µM	118	110	107
HPLM + 10% dialyzed FBS, 0.569 µM	114	109	126
HPLM + 10% dialyzed FBS, 1.71 µM	116	111	125
HPLM + 10% dialyzed FBS, 5.12 µM	94.2	109	115
HPLM + 10% dialyzed FBS, 15.4 µM	102	103	110
HPLM + 10% dialyzed FBS, 46.1 µM	5.68	70.2	45.1
RPMI 5 mM glucose + 10% FBS, 0.000781 µM	108	117	96.4
RPMI 5 mM glucose + 10% FBS, 0.00234 µM	96.2	112	112
RPMI 5 mM glucose + 10% FBS, 0.00702 µM	109	107	82.2
RPMI 5 mM glucose + 10% FBS, 0.0211 µM	101	122	110
RPMI 5 mM glucose + 10% FBS, 0.0632 µM	94.3	114	114
RPMI 5 mM glucose + 10% FBS, 0.19 µM	90.3	121	103
RPMI 5 mM glucose + 10% FBS, 0.569 µM	97.6	120	98.6
RPMI 5 mM glucose + 10% FBS, 1.71 µM	103	122	113
RPMI 5 mM glucose + 10% FBS, 5.12 µM	95.4	107	97.1
RPMI 5 mM glucose + 10% FBS, 15.4 µM	90.1	96.2	115
RPMI 5 mM glucose + 10% FBS, 46.1 µM	7.52	56.3	17.1
RPMI 5 mM glucose + 10% dialyzed FBS, 0.000781 µM	102	109	106
RPMI 5 mM glucose + 10% dialyzed FBS, 0.00234 µM	117	113	132
RPMI 5 mM glucose + 10% dialyzed FBS, 0.00702 µM	102	107	111
RPMI 5 mM glucose + 10% dialyzed FBS, 0.0211 µM	100	107	118
RPMI 5 mM glucose + 10% dialyzed FBS, 0.0632 µM	97	102	102
RPMI 5 mM glucose + 10% dialyzed FBS, 0.19 µM	98.6	113	119
RPMI 5 mM glucose + 10% dialyzed FBS, 0.569 µM	122	110	120
RPMI 5 mM glucose + 10% dialyzed FBS, 1.71 µM	105	108	111
RPMI 5 mM glucose + 10% dialyzed FBS, 5.12 µM	98.3	107	109
RPMI 5 mM glucose + 10% dialyzed FBS, 15.4 µM	88.6	103	117
RPMI 5 mM glucose + 10% dialyzed FBS, 46.1 µM	4.2	44.1	24

AUC of viability dose-response curve
Details	NOMO1 [5]	P12-Ichikawa [4]	SEM cells [3]
HPLM + 10% dialyzed FBS	449	466	462
RPMI 5 mM glucose + 10% FBS	448	453	457
RPMI 5 mM glucose + 10% dialyzed FBS	447	460	458
